Like-named read-outs stand apart in the source and are kept apart here.

Experiment [1] has as its system IGFBP4 transcripts in C2C12 cells. As to conditions: C2C12, 100 nM DHT. As to the method:
(§1) Day zero samples were harvested just prior to the induction of differentiation. […] Total RNA was isolated using Trizol®, and RNA concentration was determined by UV spectroscopy. Samples containing 20 micrograms of total RNA were separated by electrophoresis on formaldehyde-containing agarose gels, transferred to Duralon-UV™ nylon membrane (Stratagene, La Jolla, Calif.) by capillary blotting in 5×SSPE and probed sequentially for IGFBP4, IGF-II and 18S ribosomal RNA. DNA fragments used for probes were generated by reverse transcription polymerase chain reaction using rat skeletal muscle poly A+ RNA as template. […] Probes were denatured by boiling and used at a concentration of 1-2×10^6 dpm/ml hybridization solution (50% formamide, 6×SSC, 1% SDS, 15×Denhardt's solution, 0.1 mg/ml sheared salmon sperm DNA). Following hybridization at 42° C. for at least 24 hours, the membranes were washed to moderate stringency with 0.3×SSC/0.1% SDS at 55° C. […] Between successive probings, the membrane was stripped by incubation at 70° C. for one to three hours in a solution consisting of 5 mM Tris HCl, pH 8, 0.2 mM Na2EDTA, 0.05% sodium pyrophosphate and 0.1×Denhardt's solution. The imaging plate was exposed for 42 hours and 90 minutes to the IGFBP4 and IGF-II hybridizations, respectively. The 18S signal was used to normalize the hybridization signals from each of the other probes.

For experiment [2], the system named is IGFBP4 transcripts in C2hAR57 cells. As to conditions: C2hAR57, 100 nM DHT. As to the method:
as §1

Experiment [3] has as its system IGF-II transcripts in C2C12 cells. As to conditions: C2C12, 100 nM DHT. As to the method: as §1

For `C[C@]12CCC(=O)C[C@@H]1CC[C@@H]1[C@@H]2CC[C@]2(C)[C@@H](O)CC[C@@H]12` [DHT, dihydrotestosterone], the “magnitude of IGFBP4 suppression” value in experiment [1] (0 days in fusion medium) is 20%; in experiment [1] (1 day in fusion medium), 51%; in experiment [1] (2 days in fusion medium) it was 44%; in experiment [2] (0 days in fusion medium) it was 75%; in experiment [2] (1 day in fusion medium), 86%; in experiment [2] (2 days in fusion medium), 70%. Further, the “increase of IGF-II transcripts” value in experiment [3] (0 days in fusion medium) was determined as 0.8 ×; in experiment [3] (1 day in fusion medium) it was 1.5 ×; in experiment [3] (2 days in fusion medium), 1.0 ×.

The record behind these values is patent publication US20030215888A1, “Androgen receptor overexpressing skeletal myoblasts” (Pfizer Inc., priority 2002, published 2003).
